Measurements published in US9365583B2, “Substituted pyrazoles and uses thereof” (Genentech, Inc., priority 2013, dated 2016).
pKi: −log10 of the molar value.

Biological target: T1, N-terminally GST-tagged DLK (catalytic domain amino acid 1-520) (Homo sapiens, UniProt Q12852)
T1 construct: N-terminally GST-tagged DLK (catalytic domain amino acid 1-520); purchased Carna Bioscience
T1 sequence (Q12852 1-520): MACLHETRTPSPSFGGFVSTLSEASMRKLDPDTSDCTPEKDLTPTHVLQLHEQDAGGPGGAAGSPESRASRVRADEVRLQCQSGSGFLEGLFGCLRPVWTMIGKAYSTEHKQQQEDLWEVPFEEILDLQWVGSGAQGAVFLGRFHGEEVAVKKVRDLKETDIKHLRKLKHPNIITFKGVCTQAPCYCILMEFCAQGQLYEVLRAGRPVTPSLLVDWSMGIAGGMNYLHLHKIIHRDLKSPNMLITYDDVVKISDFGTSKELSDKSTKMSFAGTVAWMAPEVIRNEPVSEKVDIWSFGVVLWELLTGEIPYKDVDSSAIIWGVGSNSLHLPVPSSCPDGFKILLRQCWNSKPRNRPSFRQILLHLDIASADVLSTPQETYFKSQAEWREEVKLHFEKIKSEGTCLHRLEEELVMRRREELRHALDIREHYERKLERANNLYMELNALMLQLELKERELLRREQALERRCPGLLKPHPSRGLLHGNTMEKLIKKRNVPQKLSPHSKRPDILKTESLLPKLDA
Experiment: DLK TR-FRET inhibition assay
Assay type: biochemical
Conditions: 5 nM GST-DLK, 40 nM HIS-MKK4 K131M substrate, 30 μM ATP, 60 minutes at ambient temperature
Procedure, shortened: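 5 nM GST-DLK (aa 1-520), 40 nM HIS-MKK4 K131M and 30 μM ATP reacted 60 min at ambient temperature in HEPES pH 7.5 buffer with 10 mM MgCl2, compound 1:3 serially diluted from 20 uM. TR-FRET detection of phospho-MKK4 used Eu-cryptate anti-phospho-MKK4 plus D2 anti-HIS, read after 3 h (665/615 nm).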

Compared with `CC(C)n1nc(-c2cnc(N)c(OC(F)F)c2)cc1[C@H]1[C@@H]2C[C@@H](N3C[C@@H](F)[C@@H](F)C3)C[C@@H]21` [compound 119, 3-(difluoromethoxy)-5-(5-((1R, 3s,5S,6R)-3-((3S,4R)-3,4-difluoro-pyrrolidin-1-yl)bicyclo[3.1.0]hexan-6-yl)-1-isopropyl-1H-pyrazol-3-yl)pyridin-2-amine], `CC(C)n1nc(-c2cnc(N)c(OC(F)F)c2)cc1[C@H]1[C@@H]2C[C@@H](N3CCOCC3)C[C@@H]21` [compound 137, 3-(difluoromethoxy)-5-(1-isopropyl-5-((1R,3s,5S,6r)-3-morpholino-bicyclo[3.1.0]hexan-6-yl)-1 H-pyrazol-3-yl)pyridin-2-amine] is 0.30 log units higher in pKi: 8.18 for the first, 8.48 for the second. The second binds more tightly here.

`CC(C)n1nc(-c2cnc(N)c(OC(F)F)c2)cc1[C@H]1[C@@H]2C[C@H](NCC(F)(F)F)C[C@@H]21` [compound 120, 3-(difluoromethoxy)-5-(1-isopropyl-5-((1R,3r,5S,6r)-3-((2,2,2-trifluoroethyl)amino)bicyclo [3.1.0]hexan-6-yl)-1H-pyrazol-3-yl) pyridin-2-amine] and `CC(C)n1nc(-c2cnc(N)c(OC(F)F)c2)cc1[C@H]1[C@@H]2C[C@@H](NCC(F)(F)F)C[C@@H]21` [compound 121, 3-(difluoromethoxy)-5-(1-isopropyl-5-((1R,3s,5S,6r)-3-((2,2,2-trifluoroethyl)amino)bicyclo [3.1.0]hexan-6-yl)-1H-pyrazol-3-yl) pyridin-2-amine] are within 0.2 log units of each other in pKi: 8.16 for the first, 8.18 for the second.

`CC(C)n1nc(-c2cnc(N)c(C(F)(F)F)c2)cc1[C@@H]1[C@@H]2C[C@@H](O)C[C@@H]21` [compound 122, (1R,3s,5S,6s)-6-(3-(6-amino-5-(trifluoromethyl)pyridin-3-yl)-1-isopropyl-1H-pyrazol-5-yl) bicyclo[3.1.0]hexan-3-ol] and `CC(C)n1nc(-c2cnc(N)c(OC(F)F)c2)cc1[C@@H]1[C@@H]2C[C@@H](O)C[C@@H]21` [compound 123, (1R,3s,5S,6s)-6-(3-(6-amino-5-(difluoromethoxy)pyridin-3-yl)-1-isopropyl-1H-pyrazol-5-yl) bicyclo[3.1.0]hexan-3-ol] cannot be ordered by pKi: under 6.49 for the first, under 6.49 for the second.

`CC(C)n1nc(-c2cnc(N)c(C(F)(F)F)c2)cc1[C@@H]1[C@@H]2C[C@@H](N3CC(C#N)C3)C[C@@H]21` [compound 124, 1-((1R,3s,5S,6s)-6-(3-(6-amino-5-(trifluoromethyl)pyridin-3-yl)-1-isopropyl-1H-pyrazol-5-yl)bicyclo[3.1.0]hexan-3-yl) azetidine-3-carbonitrile] and `CC(C)n1nc(-c2cnc(N)c(C(F)(F)F)c2)cc1[C@@H]1[C@@H]2C[C@H](N3CCOCC3)C[C@@H]21` [compound 126, 5-(1-isopropyl-5-((1R,5S,6s)-3-morpholinobicyclo[3.1.0]hexan-6-yl)-1H-pyrazol-3-yl)-3-(trifluoro-methyl)pyridin-2-amine] cannot be ordered by pKi: under 5.80 for the first, under 5.80 for the second.

Going from `CC(C)n1nc(-c2cnc(N)c(OC(F)(F)F)c2)cc1[C@@H]1[C@@H]2C[C@H](N3CCOCC3)C[C@@H]21` [compound 125, 5-(1-isopropyl-5-((1R,3r,5S,6s)-3-morpholinobicyclo[3.1.0]hexan-6-yl)-1H-pyrazol-3-yl)-3-(trifluoro-methoxy)pyridin-2-amine] to `CC(C)n1nc(-c2cnc(N)c(OC(F)(F)F)c2)cc1[C@H]1[C@@H]2C[C@@]3(CCN3C3COC3)C[C@@H]21` [compound 140, 5-(1-isopropyl-5-((1′R,2r,5′S,6′r)-1-(oxetan-3-yl)spiro[azetidine-2,3′-bicyclo[3.1.0]hexan]-6′-yl)-1H-pyrazol-3-yl)-3-(trifluoro-methoxy)pyridin-2-amine], the pKi rises from under 5.80 to 8.18.

`Nc1ncc(-c2cc([C@H]3[C@@H]4C[C@H](N5CCOCC5)C[C@@H]43)n(CC3CCC3)n2)cc1OC(F)F` [compound 127, 5-(1-(cyclobutylmethyl)-5-((1R, 3r,5S,6r)-3-morpholinobicyclo [3.1.0]hexan-6-yl)-1H-pyrazol-3-yl)-3-(difluoromethoxy)pyridin-2-amine] and `Nc1ncc(-c2cc([C@H]3[C@@H]4C[C@@H](N5CCOCC5)C[C@@H]43)n(CC3CCC3)n2)cc1OC(F)F` [compound 128, 5-(1-(cyclobutylmethyl)-5-((1R, 3s,5S,6r)-3-morpholinobicyclo [3.1.0]hexan-6-yl)-1H-pyrazol-3-yl)-3-(difluoromethoxy)pyridin-2-amine] are within 0.2 log units of each other in pKi: 8.45 for the first, 8.30 for the second.

`Nc1ncc(-c2cc([C@H]3[C@@H]4C[C@H](N5CCOCC5)C[C@@H]43)n(C3CCCC3)n2)cc1OC(F)F` [compound 129, 5-(1-cyclopentyl-5-((1R,3r,5S,6r)-3-morpholinobicyclo[3.1.0]hexan-6-yl)-1H-pyrazol-3-yl)-3-(difluoromethoxy)pyridin-2-amine] and `Nc1ncc(-c2cc([C@H]3[C@@H]4C[C@@H](N5CCOCC5)C[C@@H]43)n(C3CCCC3)n2)cc1OC(F)F` [compound 130, 5-(1-cyclopentyl-5-((1R,3s,5S,6r)-3-morpholinobicyclo[3.1.0]hexan-6-yl)-1H-pyrazol-3-yl)-3-(difluoromethoxy)pyridin-2-amine] are within 0.2 log units of each other in pKi: 8.34 for the first, 8.32 for the second.

First: Nc1ncc(-c2cc([C@H]3[C@@H]4C[C@@H](N5CCOCC5)C[C@@H]43)n(C3CCC3)n2)cc1OC(F)F [compound 131, 5-(1-cyclobutyl-5-((1R,3s,5S,6r)-3-morpholinobicyclo[3.1.0]hexan-6-yl)-1H-pyrazol-3-yl)-3-(difluoromethoxy)pyridin-2-amine]
Second: Nc1ncc(-c2cc([C@H]3[C@@H]4C[C@H](N5CCOCC5)C[C@@H]43)n(C3CCC3)n2)cc1OC(F)F [compound 134, 5-(1-cyclobutyl-5-((1R,3r,5S,6r)-3-morpholinobicyclo[3.1.0]hexan-6-yl)-1H-pyrazol-3-yl)-3-(difluoromethoxy)pyridin-2-amine]
The pKi of the first is 0.34 log units lower: 8.46 for the first, 8.80 for the second.

Going from `Nc1ncc(-c2cc([C@H]3[C@@H]4C[C@H](N5CCOCC5)C[C@@H]43)nn2C2CCC2)cc1OC(F)F` [compound 132, 5-(1-cyclobutyl-3-((1R,3r,5S,6r)-3-morpholinobicyclo[3.1.0]hexan-6-yl)-1H-pyrazol-5-yl)-3-(difluoromethoxy)pyridin-2-amine] to `Nc1ncc(-c2cc([C@H]3[C@@H]4C[C@@H](N5CCOCC5)C[C@@H]43)nn2C2CCC2)cc1OC(F)F` [compound 133, 5-(1-cyclobutyl-3-((1R,3s,5S,6r)-3-morpholinobicyclo[3.1.0]hexan-6-yl)-1H-pyrazol-5-yl)-3-(difluoromethoxy)pyridin-2-amine], the pKi falls from 6.59 to at most 6.49.

`Nc1ncc(-c2cc([C@H]3[C@@H]4C[C@@H](N5CCCOCC5)C[C@@H]43)n(CC(F)F)n2)cc1C(F)(F)F` [compound 135, 5-(5-((1R,3s,5S,6r)-3-(1,4-oxazepan-4-yl)bicyclo[3.1.0]hexan-6-yl)-1-(2,2-difluoroethyl)-1H-pyrazol-3-yl)-3-(trifluoromethyl) pyridin-2-amine] and `Nc1ncc(-c2cc([C@H]3[C@@H]4C[C@H](N5CCCOCC5)C[C@@H]43)n(CC(F)F)n2)cc1C(F)(F)F` [compound 136, 5-(5-((1R,3r,5S,6r)-3-(1,4-oxazepan-4-yl)bicyclo[3.1.0]hexan-6-yl)-1-(2,2-difluoroethyl)-1H-pyrazol-3-yl)-3-(trifluoromethyl) pyridin-2-amine] are within 0.2 log units of each other in pKi: 8.25 for the first, 8.15 for the second.
